Test results taken from patent publication US20230085307A1, “PYRIDAZINONE COMPOUND AND HERBICIDE” (NISSAN CHEMICAL CORPORATION, priority 2019, published 2023).

Assays:
[1] = system: barnyard grass; test: Test Example 3: herbicidal effect by foliage application, Wagner pot (Table 18, symbol H); assay type: in vivo, barnyard grass (Echinochloa crus-galli); details: amount of applied herbicide 320 g/ha
Summary of the method: (§1)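 Plants were sown in alluvial soil held under 0.1–0.5 cm standing water and grown 14 days in a greenhouse at 25–30 °C. An emulsifiable formulation, water-diluted to the set dose, was then sprayed onto the foliage, and effects were scored three weeks later using previously defined criteria.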

[2] = system: green foxtail; test: Test Example 4: herbicidal effect by soil treatment (Table 19, symbol G); assay type: in vivo, green foxtail (Setaria viridis); details: amount of applied herbicide 320 g/ha
Summary of the method: (§2)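 Applied as a water-diluted emulsion, the compound was sprayed onto soil covering newly sown seeds. Evaluation came three weeks after application, in a greenhouse held at 25° C. to 30° C.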

[3] = system: green foxtail; test: Test Example 5: herbicidal effect by foliage application, plastic box (Table 20, symbol G); assay type: in vivo, green foxtail (Setaria viridis); details: foliage application, 320 g/ha; for herbicidal effect on green foxtail (G): three weeks after application
Summary of the method: (§3)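 Sow seeds spot-wise in sterilized diluvial soil; cover with ~1.5 cm soil. Grow 14 days in greenhouse, 25° C. to 30° C. Spray foliage with emulsion diluted to predetermined amount. Rate effect after 3 weeks.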

[4] = system: oval-leafed pondweed; test: Test Example 1: herbicidal activity, application before weed generation under submerged conditions (Table 16, symbol C); assay type: in vivo, oval-leafed pondweed (Monochoria vaginalis); details: amount of applied herbicide 320 g/ha
Summary of the method: (§4)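 Submerged Wagner pots (alluvial soil, 4 cm water) sown with weed seeds and planted with 2.5-leaf rice seedlings; emulsifiable concentrate diluted in water applied to water surface on sowing day. Held in greenhouse at 25-30 °C; injury scored 0-5 by herbicidal rate after three weeks.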

[5] = system: windgrass; test: Test Example 5: herbicidal effect by foliage application, plastic box (Table 20, symbol L); assay type: in vivo, windgrass (Apera spica-venti); details: foliage application, 320 g/ha; for herbicidal effect on windgrass (L): three weeks after application
Summary of the method: as §3

[6] = system: velvetleaf; test: Test Example 4: herbicidal effect by soil treatment (Table 19, symbol M); assay type: in vivo, velvetleaf (Abutilon theophrasti); details: amount of applied herbicide 320 g/ha
Summary of the method: as §2

[7] = system: southern crabgrass; test: Test Example 4: herbicidal effect by soil treatment (Table 19, symbol F); assay type: in vivo, southern crabgrass (Digitaria ciliaris); details: amount of applied herbicide 320 g/ha
Summary of the method: as §2

[8] = system: rice flat sedge; test: Test Example 3: herbicidal effect by foliage application, Wagner pot (Table 18, symbol E); assay type: in vivo, rice flat sedge (Cyperus iria); details: amount of applied herbicide 320 g/ha
Summary of the method: as §1

[9] = system: wild oat; test: Test Example 5: herbicidal effect by foliage application, plastic box (Table 20, symbol I); assay type: in vivo, wild oat (Avena fatua); details: foliage application, 320 g/ha; for herbicidal effect on wild oat (I): three weeks after application
Summary of the method: as §3

[10] = system: redroot pigweed; test: Test Example 4: herbicidal effect by soil treatment (Table 19, symbol N); assay type: in vivo, redroot pigweed (Amaranthus retroflexus); details: amount of applied herbicide 320 g/ha
Summary of the method: as §2

[11] = system: barnyard grass; test: Test Example 5: herbicidal effect by foliage application, plastic box (Table 20, symbol H); assay type: in vivo, barnyard grass (Echinochloa crus-galli); details: foliage application, 320 g/ha; for herbicidal effect on barnyard grass (H): three weeks after application
Summary of the method: as §3

[12] = system: lambsquarters; test: Test Example 5: herbicidal effect by foliage application, plastic box (Table 20, symbol O); assay type: in vivo, lambsquarters (Chenopodium album); details: foliage application, 320 g/ha; for herbicidal effect on lambsquarters (O): three weeks after application
Summary of the method: as §3

[13] = system: barnyard grass; test: Test Example 4: herbicidal effect by soil treatment (Table 19, symbol H); assay type: in vivo, barnyard grass (Echinochloa crus-galli); details: amount of applied herbicide 320 g/ha
Summary of the method: as §2

[14] = system: windgrass; test: Test Example 4: herbicidal effect by soil treatment (Table 19, symbol L); assay type: in vivo, windgrass (Apera spica-venti); details: amount of applied herbicide 320 g/ha
Summary of the method: as §2

[15] = system: Chinese sprangletop; test: Test Example 3: herbicidal effect by foliage application, Wagner pot (Table 18, symbol D); assay type: in vivo, chinese sprangletop (Leptochloa chinensis); details: amount of applied herbicide 320 g/ha
Summary of the method: as §1

[16] = system: Japanese bulrush; test: Test Example 1: herbicidal activity, application before weed generation under submerged conditions (Table 16, symbol B); assay type: in vivo, Japanese bulrush (Schoenoplectus juncoides); details: amount of applied herbicide 320 g/ha
Summary of the method: as §4

[17] = system: persian speedwell; test: Test Example 5: herbicidal effect by foliage application, plastic box (Table 20, symbol R); assay type: in vivo, Persian speedwell (Veronica persica); details: foliage application, 320 g/ha; for herbicidal effect on persian speedwell (R): three weeks after application
Summary of the method: as §3

[18] = evaluated 3 weeks after application

SMILES | Herbicidal effect on H (barnyard grass), foliage application [1] | G: green foxtail, herbicidal effect grade [2] | herbicidal effect on green foxtail (G) [3] | Herbicidal effect, C: oval-leafed pondweed [4] | herbicidal effect on windgrass (L) [5] | M: velvetleaf, herbicidal effect grade [6] | F: southern crabgrass, herbicidal effect grade [7] | Herbicidal effect on E (rice flat sedge), foliage application [8] | herbicidal effect on wild oat (I) [9] | N: redroot pigweed, herbicidal effect grade [10] | herbicidal effect on barnyard grass (H) [11] | herbicidal effect on lambsquarters (O) [12] | H: barnyard grass, herbicidal effect grade [13] | L: windgrass, herbicidal effect grade [14] | Herbicidal effect on D (Chinese sprangletop), foliage application [15] | Herbicidal effect, B: Japanese bulrush [16] | herbicidal effect on persian speedwell (R) [17] | further results
CCCC(=O)Oc1c(C)nn(C)c(=O)c1-c1c(-c2ccc3c(c2)OCCO3)oc2ccc(C)cc12 [9-013] | 1 (Herbicidal rate of 5% or more and less than 20%) | 3 (Herbicidal rate of 40% or more and less than 70%) | 0 (Herbicidal rate of 5% or less (almost no effect)) | 4 (Herbicidal rate of 70% or more and less than 90%) | 0 (Herbicidal rate of 5% or less (almost no effect)) | 2 (Herbicidal rate of 20% or more and less than 40%) | 4 (Herbicidal rate of 70% or more and less than 90%) | 3 (Herbicidal rate of 40% or more and less than 70%) | 0 (Herbicidal rate of 5% or less (almost no effect)) | 3 (Herbicidal rate of 40% or more and less than 70%) | 0 (Herbicidal rate of 5% or less (almost no effect)) | 3 (Herbicidal rate of 40% or more and less than 70%) | 1 (Herbicidal rate of 5% or more and less than 20%) | 0 (Herbicidal rate of 5% or less (almost no effect)) | 0 (Herbicidal rate of 5% or less (almost no effect)) | 4 (Herbicidal rate of 70% or more and less than 90%) | 5 (Herbicidal rate of 90% or more (almost completely withered)) | –
Cc1nn(C)c(=O)c(-c2c(-c3ccc(OCC(C)C)cc3)oc3ccc(F)cc23)c1O [9-027] | 5 (Herbicidal rate of 90% or more (almost completely withered)) | 5 (Herbicidal rate of 90% or more (almost completely withered)) | 5 (Herbicidal rate of 90% or more (almost completely withered)) | 5 (Herbicidal rate of 90% or more (almost completely withered)) | 5 (Herbicidal rate of 90% or more (almost completely withered)) | 5 (Herbicidal rate of 90% or more (almost completely withered)) | 5 (Herbicidal rate of 90% or more (almost completely withered)) | 5 (Herbicidal rate of 90% or more (almost completely withered)) | 4 (Herbicidal rate of 70% or more and less than 90%) | 5 (Herbicidal rate of 90% or more (almost completely withered)) | 5 (Herbicidal rate of 90% or more (almost completely withered)) | 5 (Herbicidal rate of 90% or more (almost completely withered)) | 4 (Herbicidal rate of 70% or more and less than 90%) | 4 (Herbicidal rate of 70% or more and less than 90%) | 2 (Herbicidal rate of 20% or more and less than 40%) | 5 (Herbicidal rate of 90% or more (almost completely withered)) | 5 (Herbicidal rate of 90% or more (almost completely withered)) | –
Cc1ccc2oc(-c3ccc(OCC(C)C)cc3)c(-c3c(O)c(C)nn(C)c3=O)c2c1 [9-051] | 5 (Herbicidal rate of 90% or more (almost completely withered)) | 5 (Herbicidal rate of 90% or more (almost completely withered)) | – | 5 (Herbicidal rate of 90% or more (almost completely withered)) | – | 3 (Herbicidal rate of 40% or more and less than 70%) | 1 (Herbicidal rate of 5% or more and less than 20%) | 4 (Herbicidal rate of 70% or more and less than 90%) | – | 5 (Herbicidal rate of 90% or more (almost completely withered)) | – | – | 4 (Herbicidal rate of 70% or more and less than 90%) | 4 (Herbicidal rate of 70% or more and less than 90%) | 3 (Herbicidal rate of 40% or more and less than 70%) | 5 (Herbicidal rate of 90% or more (almost completely withered)) | – | G (green foxtail) herbicidal effect grade [3, 18]: 5 (Herbicidal rate of 90% or more (almost completely withered)); L (windgrass) herbicidal effect grade [5, 18]: 2 (Herbicidal rate of 20% or more and less than 40%); I (wild oat) herbicidal effect grade [9, 18]: 1 (Herbicidal rate of 5% or more and less than 20%); H (barnyard grass) herbicidal effect grade [11, 18]: 4 (Herbicidal rate of 70% or more and less than 90%); O (lambsquarters) herbicidal effect grade [12, 18]: 5 (Herbicidal rate of 90% or more (almost completely withered)); R (persian speedwell) herbicidal effect grade [17, 18]: 5 (Herbicidal rate of 90% or more (almost completely withered))
